Patent US20230227427A1, “IL-17A MODULATORS” (SANOFI, priority 2010, published 2023)

Molecular target: T1, human recombinant IL-17A (Homo sapiens, UniProt Q16552)
T1 construct: purchased R&D Systems 7955-IL/CF
T1 sequence (Q16552 24-155): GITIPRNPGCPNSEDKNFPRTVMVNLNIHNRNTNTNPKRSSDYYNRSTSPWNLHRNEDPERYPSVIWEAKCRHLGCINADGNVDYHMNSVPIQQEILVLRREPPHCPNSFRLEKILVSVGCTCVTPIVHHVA
Test: IL-17A AlphaLISA assay (block binding of IL-17A to its receptor IL-17RA)
Conditions: compounds pre-incubated with the IL-17A for 30 min (indicated by * in Table A)
Method in brief: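 Compounds pre-incubated 24 h at RT (30 min where flagged) with human IL-17A (7.5 nM stock) before IL-17RA/Fc (5 nM stock), 90 min. Read by AlphaLISA via anti-Fc acceptor and biotin anti-IL-17A/streptavidin donor beads, 680/615 nm. 4-parameter fit; DMSO and 6 μM reference inhibitor as controls; pIC50.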

Row | AlphaLISA pIC50 | Compound
1 | 6.8* | Cc1nnn(C)c1-c1ccc(NC(=O)[C@@H](NC(=O)c2ccnn2C)[C@H]2CC[C@H](C)CC2)nc1 [Example 125, N—((S)-2-((5-(1,4-Dimethyl-1H-1,2,3-triazol-5-yl)pyridin-2-yl)amino)-1-((1r,4S)-4-methylcyclohexyl)-2-oxoethyl)-1-methyl-1H-pyrazole-5-carboxamide]

Same assay, conditions: compounds pre-incubated with the IL-17A for 30 min (indicated by * in Table A); read-out: AlphaLISA pIC50 (converted)

Row | IC50 [nM] | Compound
2 | 126 | Cc1noc(C)c1-c1ccc(NC(=O)[C@@H](NC(=O)c2ccnn2C)C2CCCCCC2)nc1 [Example 115, (S)—N-(1-Cycloheptyl-2-((5-(3,5-dimethylisoxazol-4-yl)pyridin-2-yl)amino)-2-oxoethyl)-1-methyl-1H-pyrazole-5-carboxamide]
3 | 63.1 | Cc1nocc1C(=O)N[C@H](C(=O)Nc1ccc(-c2c(C)noc2C)cn1)C1CCCCCC1 [Example 116, (S)—N-(1-Cycloheptyl-2-((5-(3,5-dimethylisoxazol-4-yl)pyridin-2-yl)amino)-2-oxoethyl)-3-methylisoxazole-4-carboxamide]
4 | 501 | Cc1noc(C)c1-c1ccc(NC(=O)[C@@H](NC(=O)c2cnnn2C)C2CCCCCC2)nc1 [Example 117, (S)—N-(1-Cycloheptyl-2-((5-(3,5-dimethylisoxazol-4-yl)pyridin-2-yl)amino)-2-oxoethyl)-1-methyl-1H-1,2,3-triazole-5-carboxamide]
5 | 158 | CCn1nccc1C(=O)N[C@H](C(=O)Nc1ccc(-c2c(C)noc2C)cn1)C1CCCCC1 [Example 118, (S)—N-(1-Cyclohexyl-2-((5-(3,5-dimethylisoxazol-4-yl)pyridin-2-yl)amino)-2-oxoethyl)-1-ethyl-1H-pyrazole-5-carboxamide]
6 | 501 | Cc1c(-c2ccc(NC(=O)[C@@H](NC(=O)c3ccnn3C)C3CCCCC3)cc2)ccc(=O)n1C [Example 119, (S)—N-(1-Cyclohexyl-2-((4-(1,2-dimethyl-6-oxo-1,6-dihydropyridin-3-yl)phenyl)amino)-2-oxoethyl)-1-methyl-1H-pyrazole-5-carboxamide]
7 | 251 | Cc1nonc1C(=O)N[C@H](C(=O)Nc1ccc(-c2c(C)noc2C)cn1)[C@H]1CC[C@H](C)CC1 [Example 120, N—((S)-2-((5-(3,5-Dimethylisoxazol-4-yl)pyridin-2-yl)amino)-1-((1r,4S)-4-methylcyclohexyl)-2-oxoethyl)-4-methyl-1,2,5-oxadiazole-3-carboxamide]
8 | 251 | Cc1nocc1C(=O)N[C@H](C(=O)Nc1ccc(-c2c(C)noc2C)cn1)C1CCCCC1 [Example 121, (S)—N-(1-Cyclohexyl-2-((5-(3,5-dimethylisoxazol-4-yl)pyridin-2-yl)amino)-2-oxoethyl)-3-methylisoxazole-4-carboxamide]
9 | 39.8 | CCn1nccc1C(=O)N[C@H](C(=O)Nc1ccc(-c2c(C)noc2C)cn1)C1CCCCCC1 [Example 122, (S)—N-(1-Cycloheptyl-2-((5-(3,5-dimethylisoxazol-4-yl)pyridin-2-yl)amino)-2-oxoethyl)-1-ethyl-1H-pyrazole-5-carboxamide]
10 | 39.8 | Cc1noc(C)c1-c1ccc(NC(=O)[C@@H](NC(=O)c2ccnn2C(C)C)C2CCCCCC2)nc1 [Example 123, (S)—N-(1-Cycloheptyl-2-((5-(3,5-dimethylisoxazol-4-yl)pyridin-2-yl)amino)-2-oxoethyl)-1-isopropyl-1H-pyrazole-5-carboxamide]
11 | 39.8 | CCc1nocc1C(=O)N[C@H](C(=O)Nc1ccc(-c2c(C)noc2C)cn1)C1CCCCCC1 [Example 124, (S)—N-(1-Cycloheptyl-2-((5-(3,5-dimethylisoxazol-4-yl)pyridin-2-yl)amino)-2-oxoethyl)-3-ethylisoxazole-4-carboxamide]
12 | 50.1 | CCn1nccc1C(=O)N[C@H](C(=O)Nc1ccc(-c2c(C)cnn2C)cn1)[C@H]1CC[C@H](C)CC1 [Example 126, N—((S)-2-((5-(1,4-Dimethyl-1H-pyrazol-5-yl)pyridin-2-yl)amino)-1-((1r,4S)-4-methylcyclohexyl)-2-oxoethyl)-1-ethyl-1H-pyrazole-5-carboxamide]
13 | 39.8 | CCc1nocc1C(=O)N[C@H](C(=O)Nc1ccc(-c2c(C)cnn2C)cn1)[C@H]1CC[C@H](C)CC1 [Example 127, N—((S)-2-((5-(1,4-Dimethyl-1H-pyrazol-5-yl)pyridin-2-yl)amino)-1-((1r,4S)-4-methylcyclohexyl)-2-oxoethyl)-3-ethylisoxazole-4-carboxamide]
14 | 251 | Cc1nonc1C(=O)N[C@H](C(=O)Nc1ccc(-c2c(C)noc2C)cn1)C1CCCCCC1 [Example 128, (S)—N-(1-Cycloheptyl-2-((5-(3,5-dimethylisoxazol-4-yl)pyridin-2-yl)amino)-2-oxoethyl)-4-methyl-1,2,5-oxadiazole-3-carboxamide]
15 | 316 | Cc1noc(C)c1-c1ccc(NC(=O)[C@@H](NC(=O)c2ccnn2C)C2CCCCC2)nc1 [Example 129, (S)—N-(1-Cyclohexyl-2-((5-(3,5-dimethylisoxazol-4-yl)pyridin-2-yl)amino)-2-oxoethyl)-1-methyl-1H-pyrazole-5-carboxamide]
16 | 316 | Cc1noc(C)c1-c1ccc(NC(=O)[C@@H](NC(=O)c2ccc3n2CCNC3)C2CCCCC2)nc1 [Example 130, (S)—N-(1-Cyclohexyl-2-((5-(3,5-dimethylisoxazol-4-yl)pyridin-2-yl)amino)-2-oxoethyl)-1,2,3,4-tetrahydropyrrolo[1,2-a]pyrazine-6-carboxamide]
17 | 63.1 | Cc1cnn(C)c1-c1ccc(NC(=O)[C@@H](NC(=O)c2conc2C)[C@H]2CC[C@H](C)CC2)nc1 [Example 131, N—((S)-2-((5-(1,4-Dimethyl-1H-pyrazol-5-yl)pyridin-2-yl)amino)-1-((1r,4S)-4-methylcyclohexyl)-2-oxoethyl)-3-methylisoxazole-4-carboxamide]
18 | 79.4 | Cc1cnn(C)c1-c1ccc(NC(=O)[C@@H](NC(=O)c2ccnn2C)C2CCCCCC2)nc1 [Example 132, (S)—N-(1-Cycloheptyl-2-((5-(1,4-dimethyl-1H-pyrazol-5-yl)pyridin-2-yl)amino)-2-oxoethyl)-1-methyl-1H-pyrazole-5-carboxamide]
19 | 251 | Cc1cnn(C)c1-c1ccc(NC(=O)[C@@H](NC(=O)c2cnnn2C)C2CCCCCC2)nc1 [Example 133, (S)—N-(1-Cycloheptyl-2-((5-(1,4-dimethyl-1H-pyrazol-5-yl)pyridin-2-yl)amino)-2-oxoethyl)-1-methyl-1H-1,2,3-triazole-5-carboxamide]
20 | 200 | Cc1cnn(C)c1-c1ccc(NC(=O)[C@@H](NC(=O)c2nonc2C)C2CCCCCC2)nc1 [Example 134, (S)—N-(1-Cycloheptyl-2-((5-(1,4-dimethyl-1H-pyrazol-5-yl)pyridin-2-yl)amino)-2-oxoethyl)-4-methyl-1,2,5-oxadiazole-3-carboxamide]
21 | 398 | Cc1noc(C)c1-c1ncc(NC(=O)[C@@H](NC(=O)c2ccnn2C)[C@H]2CC[C@H](C)CC2)cn1 [Example 135, N—((S)-2-((2-(3,5-dimethylisoxazol-4-yl)pyrimidin-5-yl)amino)-1-((1r,4S)-4-methylcyclohexyl)-2-oxoethyl)-1-methyl-1H-pyrazole-5-carboxamide]
22 | 63.1 | Cc1cnn(C)c1-c1ccc(NC(=O)[C@@H](NC(=O)c2conc2C)C2CCCCCC2)nc1 [Example 136, (S)—N-(1-Cycloheptyl-2-((5-(1,4-dimethyl-1H-pyrazol-5-yl)pyridin-2-yl)amino)-2-oxoethyl)-3-methylisoxazole-4-carboxamide]
23 | 200 | COCc1nocc1C(=O)N[C@H](C(=O)Nc1ccc(-c2c(C)cnn2C)cn1)C1CCCCCC1 [Example 137, (S)—N-(1-Cycloheptyl-2-((5-(1,4-dimethyl-1H-pyrazol-5-yl)pyridin-2-yl)amino)-2-oxoethyl)-3-(methoxymethyl)isoxazole-4-carboxamide]
24 | 251 | Cc1noc(C)c1-c1ccc(NC(=O)[C@@H](NC(=O)c2ccnn2C)[C@H]2CC[C@H](C)CC2)cn1 [Example 138, N—((S)-2-((6-(3,5-dimethylisoxazol-4-yl)pyridin-3-yl)amino)-1-((1r,4S)-4-methylcyclohexyl)-2-oxoethyl)-1-methyl-1H-pyrazole-5-carboxamide]
25 | 126 | CCn1nccc1C(=O)N[C@H](C(=O)Nc1ccc(-c2c(C)c[n+]([O-])cc2C)cn1)[C@H]1CC[C@H](C)CC1 [Example 139, 6-((S)-2-(1-Ethyl-1H-pyrazole-5-carboxamido)-2-((1r,4S)-4-methylcyclohexyl)acetamido)-3′,5′-dimethyl-[3,4′-bipyridine]1′-oxide]
26 | 631 | CCc1nocc1C(=O)N[C@H](C(=O)Nc1ccc(-c2ncncc2C)cn1)[C@H]1CC[C@H](C)CC1 [Example 140, 3-Ethyl-N—((S)-1-((1r,4S)-4-methylcyclohexyl)-2-((5-(5-methylpyrimidin-4-yl)pyridin-2-yl)amino)-2-oxoethyl)isoxazole-4-carboxamide]
27 | 158 | CCn1nncc1C(=O)N[C@H](C(=O)Nc1ccc(-c2c(C)cnn2C)cn1)C1CCCCCC1 [Example 141, (S)—N-(1-Cycloheptyl-2-((5-(1,4-dimethyl-1H-pyrazol-5-yl)pyridin-2-yl)amino)-2-oxoethyl)-1-ethyl-1H-1,2,3-triazole-5-carboxamide]
28 | 398 | COCc1noc(C)c1-c1ccc(NC(=O)[C@@H](NC(=O)c2ccnn2C)[C@H]2CC[C@H](C)CC2)nc1 [Example 142, N—((S)-2-((5-(3-(methoxymethyl)-5-methylisoxazol-4-yl)pyridin-2-yl)amino)-1-((1r,4S)-4-methylcyclohexyl)-2-oxoethyl)-1-methyl-1H-pyrazole-5-carboxamide]
